Molecular target: DRB3*0202 (Homo sapiens, UniProt P01903+P79483, A212P/D57E/F66Y/L67A/R103Q/R218S/R40L/S89Y/T80R/V86D/Y55F/Y59H)
Assay: peptide affinity binding assay (in-vitro peptide-MHC binding affinity)
Conditions: PADRE and DRB3*0202

DRB3*0202, sequence (P01903 26-254 limits assumed): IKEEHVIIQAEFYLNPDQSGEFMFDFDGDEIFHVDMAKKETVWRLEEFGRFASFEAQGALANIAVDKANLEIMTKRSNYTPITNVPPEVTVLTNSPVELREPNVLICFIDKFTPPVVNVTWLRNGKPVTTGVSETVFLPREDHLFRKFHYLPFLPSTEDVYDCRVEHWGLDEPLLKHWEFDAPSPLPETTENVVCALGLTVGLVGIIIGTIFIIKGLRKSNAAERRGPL
DRB3*0202, sequence (P79483 30-266 R40L/Y55F/D57E/Y59H/F66Y/L67A/T80R/V86D/S89Y/R103Q/A212P/R218S limits assumed): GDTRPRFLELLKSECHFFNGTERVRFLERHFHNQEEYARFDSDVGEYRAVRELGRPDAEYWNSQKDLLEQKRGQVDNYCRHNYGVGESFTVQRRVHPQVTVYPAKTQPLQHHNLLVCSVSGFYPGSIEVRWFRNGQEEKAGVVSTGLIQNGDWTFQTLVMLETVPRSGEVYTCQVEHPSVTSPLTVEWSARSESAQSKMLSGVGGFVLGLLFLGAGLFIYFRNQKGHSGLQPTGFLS

CC(C)C[C@H](NC(=O)[C@@H](NC(=O)[C@H](Cc1c[nH]c2ccccc12)NC(=O)[C@H](C)NC(=O)[C@H](C)NC(=O)[C@@H](NC(=O)[C@H](Cc1ccccc1)NC(=O)[C@H](CCCCN)NC(=O)[C@H](C)N)C(C)C)[C@@H](C)O)C(=O)N[C@@H](CCCCN)C(=O)N[C@@H](C)C(=O)N[C@@H](C)C(=O)N[C@@H](C)C(=O)O [PADRE]
peptide-MHC binding affinity before and after the addition of an infrared fluorophore ligand: essentially unchanged

— patent publication US20250152685A1, “METHOD OF MAKING A PERSONALIZED CANCER VACCINE” (FLOW PHARMA, INC., priority 2019, published 2025)
